Three compounds from US8222264B2, “Substituted amino-quinazolinones, medicaments comprising said compound, their use and their method of manufacture” (Boehringer Ingelheim International GmbH, priority 2007, dated 2012) can be followed below.

The assay addresses T1, β-secretase (ectodomain of BACE, amino acids 1-454) (Homo sapiens, UniProt P56817).
T1 construct: poly-histidine; made in house; host or cells: HEK293/APP/BACEect. cells; unpurified culture supernatant in OptiMEM used as enzyme source
Kind of assay: β-secretase activity assay, fluorescence-quenched Cy3/Cy5Q peptide substrate. In kind it is biochemical. To be noted: 100 μM test compound; positive control minus negative control = 100%; values above 100% adjusted to 100%. The protocol: To calculate the IC50 value of a substance different amounts of substance are incubated with the β-secretase in an assay. The IC50 value of a compound is defined as the concentration of substance at which a 50% reduction in the detected signal is measured, compared with the mixture without the test compound. Substances are evaluated as inhibiting β-secretase if under these conditions their IC50 value is less than 50 μM, preferably less than 10 μM and particularly preferably less than 1 μM.
In detail, an assay for detecting β-secretase activity may be as follows: The ectodomain of BACE (amino acids 1-454) fused to the recognition sequence for an anti-Myc antibody and a poly-histidine is secreted overnight by HEK293/APP/BACEect. cells in OptiMEM® (Invitrogen). A 10 μl aliquot of this cell culture supernatant is used as the enzyme source. The enzyme is stable over more than 3 months' storage at 4° C. or −20° C. in OptiMEM®. The substrate used is a peptide with the amino acid sequence SEVNLDAEFK, to which the Cy3 fluorophore (Amersham) is coupled N-terminally and the Cy5Q fluorophore (Amersham) is coupled C-terminally. The substrate is dissolved in DMSO in a concentration of 1 mg/ml and used in the experiment in a concentration of 1 μM. The test mixture also contains 20 mM NaOAc, pH 4.4 and a maximum of 1% DMSO. The test is carried out in a 96-well plate in a total volume of 200 μl for 30 minutes at 30° C. The cleaving of the substrate is recorded kinetically in a fluorimeter (ex: 530 nm, em: 590 nm). The assay is started by adding the substrate.
Mixtures without enzyme (i.e. negative control) or without inhibitor (i.e. positive control) are included in each plate as controls.
The activity of the positive control (minus the negative control=background) is set to 100% and activity in the presence of test compound is expressed relative to these 100%. […]
IC50 can be calculated with Graph Pad Prism or other suited software setting the positive control minus the negative control as 100. […]

T1 sequence (P56817 22-454): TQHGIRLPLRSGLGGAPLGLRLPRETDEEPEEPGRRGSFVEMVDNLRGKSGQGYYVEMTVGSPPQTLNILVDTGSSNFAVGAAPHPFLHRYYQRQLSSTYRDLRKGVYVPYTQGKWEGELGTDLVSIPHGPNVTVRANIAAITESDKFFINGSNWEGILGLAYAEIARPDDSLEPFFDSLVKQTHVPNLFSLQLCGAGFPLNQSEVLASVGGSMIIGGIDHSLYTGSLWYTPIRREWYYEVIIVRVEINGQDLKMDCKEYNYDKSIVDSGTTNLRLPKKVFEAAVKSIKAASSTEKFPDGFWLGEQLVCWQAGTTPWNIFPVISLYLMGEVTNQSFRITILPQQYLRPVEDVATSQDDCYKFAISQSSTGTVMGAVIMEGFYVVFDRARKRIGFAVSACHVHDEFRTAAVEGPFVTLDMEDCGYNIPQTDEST

What is called inhibition is the share of the control response that was lost under treatment. `CN(C(=O)CC[C@@H](C1CCCCC1)n1c(N)nc2ccc(Oc3ccccc3)cc2c1=O)C1CCCCC1` [Example 1] displayed an inhibition at 100 µM of 98%.

With `CN(C(=O)CCC(C1CCCCC1)n1c(N)nc2ccc(Br)cc2c1=O)C1CCCCC1` (stereo not drawn) [Example 3], the inhibition at 100 µM stood at 91%.

In turn, `CCOc1ccccc1-c1ccc2nc(N)n(C(CCC(=O)N(C)C3CCCCC3)C3CCCCC3)c(=O)c2c1` (stereo not drawn) [Example 2] gave an inhibition at 100 µM of 81%.
